Assay results reported in patent US10125111B2, “Benzofuran compounds for the treatment of hepatitis C” (BRISTOL-MYERS SQUIBB COMPANY, priority 2015, dated 2018).
Read-outs that look alike come from different tables or passages of the source.

Test system: genotype 1b (Con-1) HCV replicon
Assay: HCV Replicon Luciferase Assay
Assay type: cell-based
Conditions: Hepatitis C virus, 72 h, Huh-7 genotype 1b replicon, Renilla luciferase, 3 days incubation
Procedure: The cell lines used to evaluate compounds consist of a human hepatocyte derived cell line (Huh-7) that constitutively expresses a genotype 1b (Con-1) HCV replicon or a genotype 1b (Con-1) HCV replicon with an asparagine replacing the cysteine at amino acid 316, or a genotype 2a (JFH-1) replicon, containing a Renilla luciferase reporter gene. These cells were maintained in Dulbecco's modified Eagle medium (DMEM) containing 10% FBS, 100 U/mL penicillin/streptomycin and 1.0 mg/mL G418.
To evaluate compound efficacy, titrated compounds were transferred to sterile 384-well tissue culture treated plates, and the plates were seeded with HCV replicon cells (50 μL at a density of 2.4×10^3 cells/well) in DMEM containing 4% FBS (final DMSO concentration at 0.5%). After 3 days incubation at 37° C., cells were analyzed for Renilla Luciferase activity using the EnduRen substrate (Promega cat #E6485) according to the manufacturer's directions. Briefly, the EnduRen substrate was diluted in DMEM and then added to the plates to a final concentration of 7.5 μM. The plates were incubated for at least 1 h at 37° C. then read on a Viewlux Imager (PerkinElmer) using a luminescence program. The 50% effective concentration (EC50) was calculated using the four-parameter logistic Formula noted above.
Compound EC50 data is expressed as A: <100 nM; B=100-1000 nM; C>1000 nM).

Row | SMILES | EC50 (read-out: EC50 1b (class)) [µM] | EC50 (read-out: EC50 (uM) 1b) [µM]
1 | CCCC1CN(C(=O)c2ccccc2)CCN1C(=O)c1cccc(-c2cc3c(C(=O)NC)c(-c4ccc(F)cc4)oc3cc2N(CCF)S(C)(=O)=O)c1 (stereo not drawn) [Compound 3043] | < 0.1 | –
2 | CNC(=O)c1c(-c2ccc(F)cc2)oc2cc(N(CCF)S(C)(=O)=O)c(-c3cccc(C(=O)N4CCN(C(=O)OC(C)(C)C)CC4(C)C)c3)cc12 [Compound 3044] | < 0.1 | –
3 | CNC(=O)c1c(-c2ccc(F)cc2)oc2cc(N(CCCF)S(C)(=O)=O)c(-c3cccc(C(=O)O)c3)cc12 [Compound 4002] | > 1 | –
4 | CNC(=O)c1c(-c2ccc(F)cc2)oc2cc(N(CCCF)S(C)(=O)=O)c(-c3cccc(C(=O)NC(C)C(F)(F)F)c3)cc12 (stereo not drawn) [Compound 4003] | < 0.1 | 0.0093
5 | CNC(=O)c1c(-c2ccc(F)cc2)oc2cc(N(CCCF)S(C)(=O)=O)c(-c3cccc(C(=O)NC(CF)(CF)CF)c3)cc12 [Compound 4004] | < 0.1 | –
6 | CNC(=O)c1c(-c2ccc(F)cc2)oc2cc(N(CCCF)S(C)(=O)=O)c(-c3cccc(C(=O)NC(C)(C)C(F)(F)F)c3)cc12 [Compound 4005] | < 0.1 | –
7 | [2H]C([2H])([2H])C(NC(=O)c1cccc(-c2cc3c(C(=O)NC)c(-c4ccc(F)cc4)oc3cc2N(CCCF)S(C)(=O)=O)c1)(C([2H])([2H])[2H])C([2H])([2H])[2H] [Compound 4006] | < 0.1 | –
8 | CNC(=O)c1c(-c2ccc(F)cc2)oc2cc(N(CCCF)S(C)(=O)=O)c(-c3cccc(C(=O)NCC(F)(F)C(F)(F)F)c3)cc12 [Compound 4007] | < 0.1 | 0.0053
9 | CNC(=O)c1c(-c2ccc(F)cc2)oc2cc(N(CCCF)S(C)(=O)=O)c(-c3cccc(C(=O)NC(C)(C)CF)c3)cc12 [Compound 4008] | < 0.1 | –
10 | CNC(=O)c1c(-c2ccc(F)cc2)oc2cc(N(CCCF)S(C)(=O)=O)c(-c3cccc(C(=O)NCC(C)(C)C)c3)cc12 [Compound 4009] | < 0.1 | –
11 | CNC(=O)c1c(-c2ccc(F)cc2)oc2cc(N(CCCF)S(C)(=O)=O)c(-c3cccc(C(=O)NCC(F)(F)F)c3)cc12 [Compound 4010] | < 0.1 | –
12 | CNC(=O)c1c(-c2ccc(F)cc2)oc2cc(N(CCCF)S(C)(=O)=O)c(-c3cccc(C(=O)NC(C)(C)C)c3)cc12 [Compound 4011] | < 0.1 | –
13 | C#CC(C)(C)NC(=O)c1cccc(-c2cc3c(C(=O)NC)c(-c4ccc(F)cc4)oc3cc2N(CCCF)S(C)(=O)=O)c1 [Compound 4012] | < 0.1 | 0.008
14 | CNC(=O)c1c(-c2ccc(F)cc2)oc2cc(N(CCCF)S(C)(=O)=O)c(-c3cccc(C(=O)NC(C)(C)C(=O)OC)c3)cc12 [Compound 4013] | < 0.1 | –
15 | CNC(=O)c1c(-c2ccc(F)cc2)oc2cc(N(CCCF)S(C)(=O)=O)c(-c3cccc(C(=O)NC4(C#N)CC4)c3)cc12 [Compound 4014] | < 0.1 | –
16 | CNC(=O)c1c(-c2ccc(F)cc2)oc2cc(N(CCCF)S(C)(=O)=O)c(-c3cccc(C(=O)NCC(C)C)c3)cc12 [Compound 4015] | < 0.1 | 0.0075
17 | CNC(=O)c1c(-c2ccc(F)cc2)oc2cc(N(CCCF)S(C)(=O)=O)c(-c3cccc(C(=O)NC4(C)CC4)c3)cc12 [Compound 4016] | < 0.1 | –
18 | CNC(=O)c1c(-c2ccc(F)cc2)oc2cc(N(CCCF)S(C)(=O)=O)c(-c3cccc(C(=O)NCC(C)(C)CO)c3)cc12 [Compound 4017] | < 0.1 | –
19 | CNC(=O)c1c(-c2ccc(F)cc2)oc2cc(N(CCCF)S(C)(=O)=O)c(-c3cccc(C(=O)NC(C)(C)CO)c3)cc12 [Compound 4018] | < 0.1 | –
20 | CNC(=O)c1c(-c2ccc(F)cc2)oc2cc(N(CCCF)S(C)(=O)=O)c(-c3cccc(C(=O)NCC(C)(F)F)c3)cc12 [Compound 4019] | < 0.1 | 0.0098
21 | CNC(=O)c1c(-c2ccc(F)cc2)oc2cc(N(CCCF)S(C)(=O)=O)c(-c3cccc(C(=O)NCC(F)F)c3)cc12 [Compound 4020] | < 0.1 | –
22 | CNC(=O)c1c(-c2ccc(F)cc2)oc2cc(N(CCCF)S(C)(=O)=O)c(-c3cccc(C(=O)N[C@@H](C)C(F)(F)F)c3)cc12 [Compound 4021] | < 0.1 | –
23 | CNC(=O)c1c(-c2ccc(F)cc2)oc2cc(N(CCCF)S(C)(=O)=O)c(-c3cccc(C(=O)NC4(C)CCC4)c3)cc12 [Compound 4022] | < 0.1 | 0.0077
24 | CNC(=O)c1c(-c2ccc(F)cc2)oc2cc(N(CCCF)S(C)(=O)=O)c(-c3cccc(C(=O)NC4(C(F)(F)F)CC4)c3)cc12 [Compound 4023] | < 0.1 | –
25 | CNC(=O)c1c(-c2ccc(F)cc2)oc2cc(N(CCCF)S(C)(=O)=O)c(-c3cccc(C(=O)NC(C)(C)C#N)c3)cc12 [Compound 4024] | < 0.1 | –

Row | SMILES | EC50 (read-out: EC50 1b (class)) [µM] | EC50 (read-out: EC50 (uM) 1b) [µM]
26 | CNC(=O)c1c(-c2ccc(F)cc2)oc2cc(N(CCCF)S(C)(=O)=O)c(-c3cccc(C(=O)NC(C4CC4)C4CC4)c3)cc12 [Compound 4025] | < 0.1 | –
27 | CNC(=O)c1c(-c2ccc(F)cc2)oc2cc(N(CCCF)S(C)(=O)=O)c(-c3cccc(C(=O)NC(C)(C)C(C)(C)C)c3)cc12 [Compound 4026] | < 0.1 | –
28 | CNC(=O)c1c(-c2ccc(F)cc2)oc2cc(N(CCCF)S(C)(=O)=O)c(-c3cccc(C(=O)NC(C)(C)CCO)c3)cc12 [Compound 4027] | < 0.1 | –
29 | C#CC(CC)(CC)NC(=O)c1cccc(-c2cc3c(C(=O)NC)c(-c4ccc(F)cc4)oc3cc2N(CCCF)S(C)(=O)=O)c1 [Compound 4028] | < 0.1 | 0.0056
30 | C#CC(C)(CC)NC(=O)c1cccc(-c2cc3c(C(=O)NC)c(-c4ccc(F)cc4)oc3cc2N(CCCF)S(C)(=O)=O)c1 (stereo not drawn) [Compound 4029] | < 0.1 | 0.0059
31 | CNC(=O)c1c(-c2ccc(F)cc2)oc2cc(N(CCCF)S(C)(=O)=O)c(-c3cccc(C(=O)N[C@H](C)C(F)(F)F)c3)cc12 [Compound 4030] | < 0.1 | –
32 | CNC(=O)c1c(-c2ccc(F)cc2)oc2cc(NCCCF)c(-c3cccc(C(=O)NC(C)(C)C#N)c3)cc12 [Compound 5003] | < 0.1 | –
33 | CNC(=O)c1c(-c2ccc(F)cc2)oc2cc(NCCCF)c(-c3cccc(C(=O)NC(C)(C#N)C4CC4)c3)cc12 (stereo not drawn) [Compound 5004] | < 0.1 | –
34 | CNC(=O)c1c(-c2ccc(F)cc2)oc2cc(NCCCF)c(-c3cccc(C(=O)NC(C)(C)C(F)(F)F)c3)cc12 [Compound 5005] | < 0.1 | –
35 | CNC(=O)c1c(-c2ccc(F)cc2)oc2cc(NCCCF)c(-c3cccc(C(=O)NC(CF)(CF)CF)c3)cc12 [Compound 5006] | < 0.1 | 0.0094
36 | CNC(=O)c1c(-c2ccc(F)cc2)oc2cc(N(C(F)F)S(C)(=O)=O)c(-c3cccc(C(=O)OC)c3)cc12 [Compound 6001] | < 0.1 | –
37 | CNC(=O)c1c(-c2ccc(F)cc2)oc2cc(N(C(F)F)S(C)(=O)=O)c(-c3cccc(C(=O)O)c3)cc12 [Compound 6002] | > 1 | > 10
38 | CNC(=O)c1c(-c2ccc(F)cc2)oc2cc(N(C(F)F)S(C)(=O)=O)c(-c3cccc(C(=O)NC(C)(C)C(F)(F)F)c3)cc12 [Compound 6003] | < 0.1 | 0.0095
39 | CNC(=O)c1c(-c2ccc(F)cc2)oc2cc(N(C(F)F)S(C)(=O)=O)c(-c3cccc(C(=O)NC(C)(C)C#N)c3)cc12 [Compound 6004] | < 0.1 | –
40 | CNC(=O)c1c(-c2ccc(F)cc2)oc2cc(N(C(F)F)S(C)(=O)=O)c(-c3cccc(C(=O)NC(CF)(CF)CF)c3)cc12 [Compound 6005] | < 0.1 | –
41 | [2H]C([2H])([2H])C(NC(=O)c1cccc(-c2cc3c(C(=O)NC)c(-c4ccc(F)cc4)oc3cc2N(C(F)F)S(C)(=O)=O)c1)(C([2H])([2H])[2H])C([2H])([2H])[2H] [Compound 6006] | < 0.1 | –
42 | CNC(=O)c1c(-c2ccc(F)cc2)oc2cc(N(CC(F)F)S(C)(=O)=O)c(-c3cccc(C(=O)OC)c3)cc12 [Compound 7001] | < 0.1 | –
43 | CNC(=O)c1c(-c2ccc(F)cc2)oc2cc(N(CC(F)F)S(C)(=O)=O)c(-c3cccc(C(=O)NC(C)(C)C(F)(F)F)c3)cc12 [Compound 7003] | < 0.1 | –
44 | CNC(=O)c1c(-c2ccc(F)cc2)oc2cc(N(CC(F)F)S(C)(=O)=O)c(-c3cccc(C(=O)NC(CF)(CF)CF)c3)cc12 [Compound 7004] | < 0.1 | –
45 | CNC(=O)c1c(-c2ccc(F)cc2)oc2cc(N(CC=C(F)F)S(C)(=O)=O)c(-c3cccc(C(=O)OC)c3)cc12 [Compound 8001] | < 0.1 | –
46 | CNC(=O)c1c(-c2ccc(F)cc2)oc2cc(N(CCC(F)(F)F)S(C)(=O)=O)c(-c3cccc(C(=O)O)c3)cc12 [Compound 9002] | > 1 | –
47 | CNC(=O)c1c(-c2ccc(F)cc2)oc2cc(N(CCC(F)(F)F)S(C)(=O)=O)c(-c3cccc(C(=O)NCC(F)(F)C(F)(F)F)c3)cc12 [Compound 9003] | < 0.1 | 0.0076
48 | CNC(=O)c1c(-c2ccc(F)cc2)oc2cc(N(CCC(F)(F)F)S(C)(=O)=O)c(-c3cccc(C(=O)NC(C)(C)C(F)(F)F)c3)cc12 [Compound 9004] | < 0.1 | 0.0106
49 | CNC(=O)c1c(-c2ccc(F)cc2)oc2cc(N(CCC(F)(F)F)S(C)(=O)=O)c(-c3cccc(C(=O)NC(CF)(CF)CF)c3)cc12 [Compound 9005] | < 0.1 | –
50 | CNC(=O)c1c(-c2ccc(F)cc2)oc2cc(N(CCC(F)(F)F)S(C)(=O)=O)c(-c3cccc(C(=O)NC(C)(C)C#N)c3)cc12 [Compound 9006] | < 0.1 | –
